The record followed here is PubChem BioAssay (NCI).

Among the test systems are A498 renal; EKVX NSCLC; HCT-116 colon; HL-60(TB) leukemia; OVCAR-8 ovarian; SF-268 CNS; SN12C renal; U251 CNS.
What all share (test): inhibition of tumour cell growth, NCI panel, 48 h

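Following 48 hours of exposure in 96-well plates, responses at five concentrations were used to interpolate endpoints linearly. GI50 is the concentration that inhibits growth by half. TGI denotes the concentration required for complete inhibition of growth.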 Some results are limits rather than exact numbers.

As to `COc1ccccc1/C=C1\CCC(CNc2ccc(Cl)cc2)C1=O` (centres undefined), the TGI was found to be 27 µM in the assay with A498 renal; 20.2 µM in the assay on EKVX NSCLC; 19.1 µM in the assay on HCT-116 colon; 13.9 µM in the assay with HL-60(TB) leukemia; 20.7 µM in the assay with OVCAR-8 ovarian; 24.2 µM in the assay on SF-268 CNS. Moreover, the figures for the TGI with SN12C renal and in the assay on U251 CNS were 26.5 µM and 23.2 µM, respectively.
In the case of `Nc1ccc(N=Nc2ccccc2)c(N)n1`, the GI50 was 12.9 µM in the assay on A498 renal; 4.08 µM in the assay on EKVX NSCLC; 23 µM with HCT-116 colon; 27.5 µM in the assay with HL-60(TB) leukemia; 37.5 µM in the assay on OVCAR-8 ovarian; 16.8 µM with SF-268 CNS. Also, the GI50 is 30.4 µM with SN12C renal and 29.8 µM in the assay on U251 CNS. For the same compound, the TGI is 39.8 µM with A498 renal; 33.4 µM with EKVX NSCLC; 60.5 µM in the assay on HCT-116 colon; greater than 100 µM with HL-60(TB) leukemia; greater than 100 µM in the assay on OVCAR-8 ovarian; 72.9 µM in the assay with SF-268 CNS. Further, the TGI in the assay with SN12C renal and with U251 CNS was greater than 100 µM each time.
With `N#CCCN(CCC#N)c1ccc(/C=C2\N=C(COc3ccc(Cl)cc3Cl)OC2=O)cc1`, the TGI with A498 renal, in the assay with EKVX NSCLC, in the assay on HCT-116 colon, with HL-60(TB) leukemia, in the assay on OVCAR-8 ovarian and in the assay on SF-268 CNS was greater than 100 µM each time. The TGI in the assay on SN12C renal and in the assay on U251 CNS was greater than 100 µM each time.
With `CS(=O)(=O)N(CCC#N)c1ccc(/C=N/NC(=O)CC(=O)Nc2cccc(Cl)c2)cc1`, the TGI in the assay on A498 renal, in the assay with EKVX NSCLC, in the assay on HCT-116 colon, in the assay on OVCAR-8 ovarian, in the assay on SF-268 CNS and with SN12C renal was greater than 100 µM each time. This compound also displayed a TGI in the assay with U251 CNS greater than 100 µM.
As for `CNS(=O)(=O)NN(C)S(=O)(=O)c1ccc(Cl)cc1`, the TGI with A498 renal, with EKVX NSCLC, in the assay on HCT-116 colon, in the assay with HL-60(TB) leukemia, with OVCAR-8 ovarian and in the assay with SF-268 CNS was greater than 100 µM in each case. Besides, the TGI in the assay with SN12C renal and with U251 CNS was greater than 100 µM in each case.
For the compound `CS(=O)(=O)OCCN1CCN(C(=O)c2cccc3c(Nc4ccc(S(N)(=O)=O)cc4)c4ccccc4nc23)CC1`, the TGI is greater than 100 µM in the assay with A498 renal; greater than 100 µM in the assay with EKVX NSCLC; greater than 57.7 µM in the assay on HCT-116 colon; greater than 100 µM in the assay with HL-60(TB) leukemia; greater than 100 µM in the assay with OVCAR-8 ovarian; greater than 100 µM in the assay on SF-268 CNS. In addition, the TGI with SN12C renal and with U251 CNS was greater than 100 µM each time.
Consider `CCN(CC)c1ccc(N=C2C=CC(=O)c3ncccc32)c(C)c1`, for which the TGI in the assay with EKVX NSCLC was 30.4 µM; with HCT-116 colon it was 6 µM; in the assay with HL-60(TB) leukemia, 5.15 µM; with OVCAR-8 ovarian it was 10.5 µM; in the assay with SF-268 CNS it was 21.3 µM; with SN12C renal it was 20.1 µM. Moreover, the TGI in the assay on U251 CNS came to 19.6 µM.
As for `Oc1ccc2occ3c2c1CCC3`, the TGI in the assay with A498 renal, in the assay on EKVX NSCLC, with HCT-116 colon, in the assay with HL-60(TB) leukemia, with OVCAR-8 ovarian and in the assay with SN12C renal was greater than 100 µM each time. In the assay with U251 CNS, this compound yielded a TGI greater than 100 µM.
Turning to `Cn1cc(NC(=O)c2cc(NC(=O)Nc3cc(C(=O)Nc4cc(C(=O)NCCC(=N)N)n(C)c4)n(C)c3)cn2C)cc1C(=O)NCCC(=N)N`, the TGI is 63.2 µM with A498 renal; greater than 100 µM in the assay on EKVX NSCLC; greater than 100 µM in the assay with HCT-116 colon; greater than 100 µM in the assay on HL-60(TB) leukemia; 50 µM in the assay on OVCAR-8 ovarian; greater than 100 µM in the assay on SF-268 CNS. Further, the TGI is greater than 100 µM with SN12C renal and 69.9 µM with U251 CNS.
On to `CCNc1c(C(=O)N(CC)CC)c(=O)[nH]c2ncccc12`, for which the TGI in the assay on A498 renal, with EKVX NSCLC, in the assay with HCT-116 colon, in the assay with HL-60(TB) leukemia, with OVCAR-8 ovarian and with SF-268 CNS was greater than 100 µM each time. Further, the TGI in the assay with SN12C renal and in the assay with U251 CNS was greater than 100 µM throughout.
`NC(N)=N/N=C/c1c(-c2cccs2)nc2sccn12`: the GI50 in the assay on A498 renal is 4.46 µM; in the assay with EKVX NSCLC, 6.32 µM; in the assay on HCT-116 colon it was 4.23 µM; with HL-60(TB) leukemia, 12.8 µM; with OVCAR-8 ovarian, 24.1 µM; in the assay with SF-268 CNS it was 15.2 µM. In addition, the GI50 is 13.4 µM in the assay with SN12C renal and 15.8 µM in the assay on U251 CNS. In addition, the TGI with A498 renal was found to be 13.6 µM; with EKVX NSCLC, 19.1 µM; in the assay with HCT-116 colon it was 17.7 µM; in the assay with HL-60(TB) leukemia it was 39 µM; with OVCAR-8 ovarian it was 49 µM; in the assay on SF-268 CNS, 29.1 µM. In addition, the values for the TGI in the assay on SN12C renal and in the assay with U251 CNS were 26.9 µM and 33.9 µM, respectively.
As to `CC1CCC2(NC1)OC1CC3[C@@H]4CC=C5C=CCC[C@]5(C)C4CC[C@]3(C)C1C2C` (some centres undefined), the TGI is greater than 100 µM in the assay with A498 renal; 55.5 µM with EKVX NSCLC; 32.7 µM in the assay with HCT-116 colon; 29.7 µM in the assay on HL-60(TB) leukemia; 48.1 µM in the assay with OVCAR-8 ovarian; greater than 100 µM in the assay on SF-268 CNS. In addition, the TGI turned out to be 85.8 µM with SN12C renal and 88.7 µM in the assay on U251 CNS.
Consider `CC(C)COC(=O)N1N=NC2C3OC(CC3=O)C21` (centres undefined), for which the TGI in the assay on A498 renal, in the assay with EKVX NSCLC, in the assay on HCT-116 colon, with HL-60(TB) leukemia, with OVCAR-8 ovarian and in the assay with SF-268 CNS was greater than 100 µM each time. Moreover, the TGI in the assay with SN12C renal and with U251 CNS was greater than 100 µM in each case.
In the case of `CC(=O)O[C@H]1CC[C@@]2(C)C(CC[C@]3(C)C2CC[C@]2(C)Oc4c(C)cc(O)cc4C[C@@H]23)C1(C)C` (some centres undefined), the TGI in the assay on A498 renal is 26 µM; with EKVX NSCLC it was 46.9 µM; in the assay with HCT-116 colon it was 18.1 µM; in the assay on HL-60(TB) leukemia, 14.7 µM; in the assay on OVCAR-8 ovarian, 23.8 µM; with SF-268 CNS, 21.4 µM. Moreover, in the assay with U251 CNS, the TGI was found to be 7.96 µM.
